The compound `COc1cc(CO)ncc1C` had a melting point of 102 to 104 °C.
Under `Cc1ccccc1Oc1cccc2c1OC(=O)C2` stands 110 to 111 °C; under `O=Cc1ccc(NCc2cccc(Cl)c2)cn1`, 102 to 105 °C.
`COc1ccc(S(=O)(=O)CC(O)(CS(=O)(=O)c2ccc(F)cc2)C(=O)NO)cc1` (stereo unspecified) returned a melting point of 85 to 90 °C.
Under `COC(=O)c1nc(CCN(C)C)n2c1CN=C(c1ccccc1Cl)c1cc(Cl)ccc1-2` stands 203 to 204 °C; under `COc1cc2cc(C=Cc3ccccc3Cl)[nH]c2cc1OCc1ccccc1`, 192 to 194 °C.
On to `CCCCCCCCCCOC(=O)OC(C)OC1=C(C(=O)Nc2ccccn2)N(C)S(=O)(=O)c2ccccc21` (stereo unspecified), for which the melting point lay in the range of 84 to 86 °C.
As for `COc1cc2cc(Br)c(C)cc2c(C(C)C)c1OC`, the melting point was in the range of 62 to 63 °C.
The same measure for `CN(C)C(=O)Cc1c(C(=O)c2ccccc2)[nH]c2cc(Cl)ccc12`: 190 to 193 °C; for `O=S(=O)(N=CN1CCOCC1)c1nc(-c2ccccc2)ns1`: 185 to 187 °C.
`CC(c1ccccc1)N1CCC(n2cnc3ccc(Cl)cc3c2=O)CC1` (stereo unspecified) yielded a melting point of 160 to 162 °C.
The same measure for `Nc1cc(N2CCCC2)c2c(Cl)ccc3c2c1C(=O)N(O)C3=O`: 211 to 213 °C; for `CCOC(=O)c1ccc(OCC2CN(c3nnc(C)s3)CCO2)cc1` (stereo unspecified): 112 °C; for `COC(=O)c1cc(=NS(=O)(=O)c2ccc(C)cc2)c2c(Cl)cc(Cl)cc2[nH]1`: 210 to 212 °C.
The same measure for `COc1ccc(Cl)cc1[C@]1(F)C(=O)N(C(=O)NC(C)(C)C(=O)OC(C)(C)C)c2cc(C(F)(F)F)ccc21`: 57 to 60 °C; for `CC(C)Oc1cccc2oc(C(=O)O)cc12`: 148 to 150 °C; for `COc1ccc(-c2nsc3ccc([N+](=O)[O-])cc23)cc1`: 207 °C.
In the case of `Nc1nc2cc(Br)ccc2c2c1nc1n2CCCO1`, the melting point was in the range of 273 to 276 °C.
As to `Fc1ccc(-c2ncn(CCCOc3ccccc3)c2-c2ccncc2)cc1`, the melting point lay in the range of 95 to 96 °C.
Under `CC(C)Cn1cc(C(=O)Nc2nccs2)c2ccc(Cl)cc21` stands 200 to 202 °C; under `CCCCCCCCCCCCCCCC(O)C(N)CO` (stereo unspecified), 81 °C; under `CNc1cccc2c1C(=O)c1ccccc1C2=O`, 172 °C.
Compound `Cn1c(=O)c(=NO)nc(-c2ccccc2)c2cnccc21` yielded a melting point of 223 to 224 °C.
Turning to `CC1(C)CCc2cc(OCc3ccccc3)c(O)c([N+](=O)[O-])c2C1=O`, the melting point was 146 to 149 °C.
The compound `COC(=O)c1c(C)c(-c2cc(OC)c(Cl)cc2F)nn1C` gave a melting point of 135 to 137 °C.
Compound `CCOC(=O)c1c(C)[nH]c2ccc(OC[C@@H](O)CN)cc12` gave a melting point of 66 to 68 °C.
The same measure for `Cc1c(NC(=O)c2ccc(OC[C@@H]3CCCO3)cc2)ccc2cc(CNCC(C)C)cnc12`: 142 to 143 °C; for `COC(=O)c1cccc2c1N=C(c1ccccc1Cl)CC2=O`: 166 to 168 °C.
`CCOC(=O)C(C)(C)Oc1ccc(C=CC(=O)c2ccccc2)cc1` registered a melting point of 68 to 70 °C.
Consider `CNC(=O)c1cc(-c2ccc(OC)cc2)n[nH]c1=O`, for which the melting point was in the range of 246 to 247 °C.
The same measure for `O=Cc1cnc(-c2ccccc2Cl)s1`: 95 to 97 °C.
With `CCOC(=O)CCc1cn(Cc2ccc(OCc3csc(-c4ccccn4)n3)cc2)cc1-c1ccccc1`, the melting point was in the range of 81 to 82 °C.
Under `Cc1c(C(=O)Nc2ccc(N(CCO)CCO)c(C#N)c2)c2cc(F)ccc2n1CC(=O)O` stands 150 to 153 °C.
Compound `Nc1c([N+](=O)[O-])cnn1-c1c(F)c(F)c(C(F)(F)F)c(F)c1F` displayed a melting point of 123 to 126 °C.
The same measure for `COc1ccc(-c2nnc(O)nc2-c2ccc(OC)cc2)cc1`: 238 to 242 °C.
For `CN1Cc2c(C(=O)OCC3CC3)ncn2-c2cccc(Cl)c2C1=O`, the melting point was 194 to 195 °C.
Compound `CCOC(=O)/C=C(/c1ccc(Cl)cc1)c1cccc(OC)c1OC` registered a melting point of 82 to 84 °C.
`CN(C)c1ccc(Pc2ccc(N(C)C)cc2)cc1` showed a melting point of 80 to 90 °C.
The same measure for `S=c1[nH]c(=S)c2[nH]cnc2[nH]1`: 196 to 200 °C; for `O=c1[nH]c(COCC(F)(F)F)nc2nccnc12`: 165 to 167 °C.
The same measure for `CCO/C(=N/O)C1Cc2cc(C(C)=O)c(O)c(Cl)c2O1` (stereo unspecified): 154 to 155 °C; for `Cc1cc(-c2nc3ccccc3s2)ccc1N`: 193 to 195 °C; for `CCC(CC)c1ccc(C#N)c2nc(Oc3ccc(Cl)cc3Br)n(C)c12`: 136 to 137 °C.
`O=C(CCCCBr)NC(=O)C1CC1` had a melting point of 114 to 115 °C.
Turning to `O=C(Cn1ncc2cc(/C=C/C(c3cc(Cl)c(F)c(Cl)c3)C(F)(F)F)ccc2c1=O)NCC(F)(F)F` (stereo unspecified), the melting point was 172 to 175 °C.
In the case of `CC(=O)c1ccc(NS(C)(=O)=O)c(S(=O)c2ccc(F)cc2F)c1` (stereo unspecified), the melting point lay within 151 to 152 °C.
The same measure for `CC(=O)Nc1cc([N+](=O)[O-])ccc1OCCCCl`: 130 °C; for `COc1cc2ncc(C#N)c(Nc3cccc(SC)c3)c2cc1OC`: greater than 250 °C; for `O=C(O)c1ccc(-c2ccc(C(=O)O)cn2)nc1`: greater than 400 °C.
Under `COCCOCCOCc1c(Br)c(Br)c(Br)c(Br)c1Br` stands 83 °C; under `O=S(=O)(c1cccc(F)c1)N1CCCC1c1ccc(F)cc1` (racemic), 101 °C; under `Cc1ccc(CS(=O)c2nc3cc4c(cc3[nH]2)OC(F)(F)O4)nc1` (stereo unspecified), 206 to 208 °C.
The same measure for `COc1cc2c(c(Cl)c1Cl)SC(C(C)C)C2O` (stereo unspecified): 119 to 123 °C; for `C=CCCn1cc(Br)cnc1=O`: 127 to 128 °C.
Take `O=c1c2ccccc2cc2sccn12`: the melting point lay in the range of 135 to 136 °C.
For the compound `CC(=O)Oc1cc2c(c(OC(C)=O)c1)C1CCC3(C)C(O)CCC3C1CC2` (stereo unspecified), the melting point fell in the range of 210 to 211 °C.
The compound `C=C1CCc2[nH]c3c(c2C1=O)CCC3` displayed a melting point of 214 to 215 °C.
Under `CC(=O)OC1CCC2(C)C(CCC3C4CC(C)C(O)(C(C)=O)C4(C)CCC32F)C1` (stereo unspecified) stands 150 °C; under `CC(=O)NCC12CC(c3ccccc31)c1ccccc12`, 184 to 186 °C.
The same measure for `O=[N+]([O-])c1ccc(-c2ccc(C(O)CCl)o2)cc1` (stereo unspecified): 111 to 113 °C; for `O=C(O)c1cccc(-c2cnn3c(O)ncnc23)c1`: greater than 300 °C.
Consider `NS(=O)(=O)c1ccc(N2CCN(CC3OCCc4ccccc43)CC2)cc1` (racemic), for which the melting point stood at 218 °C.
The same measure for `CC(C)Oc1ccc(NC=O)cc1C(F)(F)F`: 80 to 82 °C.
`C=C(C)c1nc(CCC)n(Cc2ccc(-c3ccccc3C(=O)C(=O)O)cc2)c1C(=O)O`: the melting point was 150 to 151 °C.
Consider `COC(=O)C1=C2Nc3ccccc3C23CCNC3CC1` (stereo unspecified), for which the melting point lay in the range of 145 to 148 °C.
The same measure for `CCOC(=O)c1c(-c2ccc(OC)cc2)c2oc3ccc(-c4ccccc4)cc3c2n(Cc2cc(OC)ccc2OC)c1=O`: 216 °C; for `COCCc1ccc(OCC(O)CO)cc1` (stereo unspecified): 25 °C.
Under `COc1cc(-c2csc(N)n2)c(OC)cc1C` stands 191 to 192 °C; under `O=C(OCC1CC1)c1ccc(OCCC2CCN(c3ccc(Cl)nn3)CC2)cc1`, 134 °C; under `CC(=O)C(CCC#N)(CCC#N)C(C)=O`, 185 to 186 °C.
Under `COC(=O)C1=Cc2cc(-c3ccc(OCCOC(C)C)cc3)ccc2N(S(C)(=O)=O)CC1` stands 119 to 121 °C; under `Fc1ccc([C@H]2CC[C@H](N3CCN(Cc4ccccc4)CC3)CC2)c2ccccc12`, 130 to 132 °C; under `Cc1c(C)c(C2CC(=O)C=C(O)C2)c(C)c2c1CC(C)(C)O2` (stereo unspecified), 121 to 123 °C.
Consider `CN(Cc1ccc(NC(=O)C2=Cc3cc(-c4ccc(Cl)cc4)ccc3S(=O)(=O)CC2)cc1)C1CCOCC1`, for which the melting point lay in the range of 247 to 250 °C.
Under `O=C1C(Br)=CC(Br)(Br)C=C1Br` stands 123 to 127 °C; under `COC(=O)c1ccc(Cl)cc1NC(=O)CSc1ccc(C)c(C)c1`, 90 to 91 °C.
Under `CCc1nc(C(C)(C)O)c(C(=O)OCc2oc(=O)oc2C)n1Cc1ccc(-c2ccccc2-c2nnnn2C(c2ccccc2)(c2ccccc2)c2ccccc2)cc1` stands 145 °C; under `COC1(OC)CCC(O)(c2ccc(F)cc2)CC1`, 94 to 99 °C; under `Cc1cccc(C(=O)O)c1N(C)S(=O)(=O)c1ccc(OCCCNC(=O)c2cc3ccccc3o2)cc1`, 184 to 186 °C.
`Cc1cc(C2=NOC(c3cc(Cl)cc(Cl)c3)(C(F)(F)F)C2)ccc1Cl` (stereo unspecified): the melting point lay in the range of 110 to 111 °C.
The same measure for `Cc1nc(-c2ncn3c2COC(=O)c2c(Cl)cccc2-3)no1`: 253 to 255 °C.
Under `c1ccc(-c2cnccn2)cc1` stands 69 to 70 °C; under `CCOC(=O)c1cc(-n2c(=O)[nH]c3c(c2=O)CCC3)ccc1Cl`, 178 to 180 °C; under `Cn1cc(-n2c(-c3cccc(F)c3)nc3c(Cl)ncnc32)ccc1=O`, 219 °C.
For the compound `Cc1cccc(COc2cccc(OCc3ccc4cc(F)ccc4n3)c2)c1OCC(=O)O`, the melting point fell in the range of 160 to 161 °C.
In turn, `O=[N+]([O-])c1ccc2c(c1)OC(CC(F)(F)F)(C(F)(F)F)O2` (stereo unspecified) registered a melting point of 87 to 88 °C.
On to `CS(=O)(=O)N[C@H]1CC[C@H](Nc2nccc(-n3ncc4ccccc43)n2)CC1`, for which the melting point is 270 °C.
`CC(C)(C)COc1ccc(C2=CC=CN3CCS(=O)(=O)N=C23)cc1` came in with a melting point of 258 to 259 °C.
On to `CCOC(=O)C1=C(C)Nc2nc(N)nc(N3CCOCC3)c2C1c1cccc([N+](=O)[O-])c1` (stereo unspecified), for which the melting point was determined as 208 °C.
Under `CN1C(=O)C2(COc3cc4c(cc32)OCCO4)c2c1cccc2-n1ccccc1=O` (stereo unspecified) stands 212 to 214 °C.
Under `Cc1ccc(OC2SCC(O)C(O)C2O)c(-c2c(C)noc2C)n1` (stereo unspecified) stands 70 to 84 °C.

One may read the melting point as the temperature, or range, at which the solid turns liquid.

Source of the values: a melting point compilation (Tetko et al.; mined from patent text by program, amines drawn as free bases though some values may be those of a salt).
